This is an account of results in publication PMC10224536 (Molecules, 2023).

Some results are limits rather than exact numbers.

Assay [1] deals with T1, synthetic human Aβ1-42 fibrils (Homo sapiens, UniProt P05067).
T1 construct: Synthetic lyophilized human Aβ1-42 peptide; purchased EMC Microcollections, Tuebingen, Germany; host or cells: chemical synthesis
Kind of assay: Competition binding assay against [^3H]SIL26 on Aβ1-42 fibrils. As for the experimental part: (§1) The generation of Aβ1-42 fibrils was adapted from Bagchi et al. and described by Kuebler et al.. Synthetic lyophilized human Aβ1-42 peptide (5 mg) with >90% purity (EMC Microcollections, Tuebingen, Germany) was dissolved in DMSO (221.5 µL). […] . The monomers were incubated in an Eppendorf Thermomixer at 37 °C with shaking at 800 rpm for 72 h to induce aggregation. Generated fibrils were sonicated for three minutes in a water bath (Elmasonic S 60 H, Elma Schmidbauer GmbH, Singen, Germany). The final products were aliquoted, frozen on dry ice, and stored at −80 °C until use.
(§2) Plates were incubated on a shaker (MaxQ 6000, Thermo Fisher Scientific Inc., Marietta, OH, USA) at 50 rpm for 2 h at 37 °C, covered by removable sealing tape (PerkinElmer, Waltham, MA, USA). Vacuum filtration and read-out were performed as previously reported. Briefly, a glass fiber Filtermat B (PerkinElmer, Waltham, MA, USA) incubated with 0.5% polyethylenimine (PEI; Sigma Aldrich Chemie GmbH, Munich, Germany) for 30 min at 4 °C prior to filter harvesting was used with a FilterMate Harvester (PerkinElmer, Waltham, MA, USA). Melt-on scintillator sheets (MeltiLex B/HS, PerkinElmer, Waltham, MA, USA) were melted onto dried filters. Accumulation of tritium was counted in a liquid scintillation Wallac MicroBeta TriLux counter (PerkinElmer, Waltham, MA, USA) at two minutes/well.
(§3) . Data points were fitted using non-linear regression analysis in GraphPad Prism (GraphPad Software, Inc., Version 8.4.0, San Diego, CA, USA).

Assay [2] concerns the target T2, human recombinant αSYN fibrils (Homo sapiens, UniProt P37840). Kind of assay: Competition binding assay against [^3H]SIL26 on αSYN fibrils.
Protocol: (§4) The concentrations of αSYN fibrils and Aβ1-42 fibrils as above were used.
(§5) Plates were incubated on a shaker (MaxQ 6000, Thermo Fisher Scientific Inc., Marietta, OH, USA) at 50 rpm for 2 h at 37 °C, covered by removable sealing tape (PerkinElmer, Waltham, MA, USA). Vacuum filtration and read-out were performed as previously reported [18]. Briefly, a glass fiber Filtermat B (PerkinElmer, Waltham, MA, USA) incubated with 0.5% polyethylenimine (PEI; Sigma Aldrich Chemie GmbH, Munich, Germany) for 30 min at 4 °C prior to filter harvesting was used with a FilterMate Harvester (PerkinElmer, Waltham, MA, USA). Melt-on scintillator sheets (MeltiLex B/HS, PerkinElmer, Waltham, MA, USA) were melted onto dried filters. Accumulation of tritium was counted in a liquid scintillation Wallac MicroBeta TriLux counter (PerkinElmer, Waltham, MA, USA) at two minutes/well.
Assay [3] concerns the target T1, synthetic human Aβ1-42 fibrils. Kind of assay: Competition binding assay against [^3H]MODAG−001 on Aβ1-42 fibrils. The settings on record: competition vs 1 nM [^3H]MODAG−001, Aβ1-42 fibrils 1 µM; mean ± SEM; read-out: Aβ—Ki [^3H]MODAG−001. As for the experimental part: as §1, §2, §3
Assay [4] addresses T2, human recombinant αSYN fibrils. Briefly: Competition binding assay against [^3H]MODAG−001 on αSYN fibrils. To be noted: for αSYN—Ki [^3H]MODAG−001: competition vs 1 nM [^3H]MODAG−001, αSYN fibrils 50 nM, mean ± SEM.
Protocol: as §4, §5
Assay [5] has as its system αSYN. The settings on record: carbon-11 labeled PET tracer; cited from earlier work.
Assay [6] has as its target Aβ. The settings on record: FDA-approved Aβ PET tracers; cited from earlier work.
[7] abbreviates: competition vs [^3H]SIL26 (7 nM), αSYN fibrils 35 nM, mean ± SEM.

T1 sequence (P05067 672-713 limits assumed): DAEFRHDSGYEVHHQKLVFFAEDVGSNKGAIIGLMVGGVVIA

Regarding `FCCOc1ccc2c(c1)Sc1cc(-c3cc(-c4ccccn4)n[nH]3)ccc1N2` [DAP2b, 3-(2-Fluoroethoxy)-7-(3-(pyridin-2-yl)-1H-pyrazol-5-yl)-10H-phenothiazine], the Ki (as a rule, the dissociation constant of the complex between target and ligand, obtained from inhibition or displacement) in assay [1] was 65.8 ± 56.4 nM; in assay [2], more than 400 nM; in assay [3] it was 12.2 ± 1.7 nM; in assay [4], 107 ± 31.4 nM.
The like results for `FCCOc1ccc2c(c1)Sc1cc(-c3cc(-c4cccc(F)c4)n[nH]3)ccc1N2` [DAP2c, 3-(2-Fluoroethoxy)-7-(3-(3-fluorophenyl)-1H-pyrazol-5-yl)-10H-phenothiazine] were, in that order, 3.1 ± 2.1 nM, more than 400 nM, 8 ± 1.3 nM and 212 ± 93.8 nM.
The matching figures for `COc1ccc2c(c1)Sc1cc(-c3cc(-c4ccccc4)n[nH]3)ccc1N2` [DAP1a, 3-Methoxy-7-(3-phenyl-1H-pyrazol-5-yl)-10H-phenothiazine]: 10.7 nM, 186 ± 145 nM, 10.5 ± 0.9 nM and 289 ± 159 nM.
Turning to `COc1cccc(Sc2cc(-c3cc(-c4cccc(F)c4)n[nH]3)ccc2N)c1` [DAP3c, 4-(3-(3-Fluorophenyl)-1H-pyrazol-5-yl)-2-((3-methoxyphenyl)thio)aniline], the “αSYN—Ki [^3H]SIL26” value in assay [2] (setting [7]) was “no competition ^a”. In addition, in assay [3], the inhibitory constant (Ki) was more than 400 nM. The “αSYN—Ki [^3H]MODAG−001” value in assay [4] was “no competition”.
Turning to `CN(C)c1ccc(-c2cc(-c3cccc(Br)c3)[nH]n2)cc1` [[^11C]anle253b], the IC50 (commonly the point on the concentration scale where inhibition reaches its midpoint) in assay [5] was 1.6 nM.
`COc1ccc2c(c1)Sc1cc(-c3cc(-c4ccccn4)n[nH]3)ccc1N2` [DAP1b, 3-Methoxy-7-(3-(pyridin-2-yl)-1H-pyrazol-5-yl)-10H-phenothiazine]: the Ki turned out to be 7.6 nM in assay [1], 90.1 ± 56.8 nM in assay [2], 10.3 ± 0.8 nM in assay [3] and 69.9 ± 14.9 nM in assay [4].
Regarding `COc1cccc(Sc2cc(-c3cc(-c4ccccn4)n[nH]3)ccc2N)c1` [DAP3b, 2-((3-Methoxyphenyl)thio)-4-(3-(pyridin-2-yl)-1H-pyrazol-5-yl)aniline], the “αSYN—Ki [^3H]SIL26” value in assay [2] (setting [7]) is recorded as “no competition ^a”. In addition, in assay [3], the inhibitory constant (Ki) was more than 400 nM. Further, the “αSYN—Ki [^3H]MODAG−001” value in assay [4] is on record as “no competition”.
Regarding `FCCOc1ccc2c(c1)Sc1cc(-c3cc(-c4ccccc4)n[nH]3)ccc1N2` [DAP2a, 3-(2-Fluoroethoxy)-7-(3-phenyl-1H-pyrazol-5-yl)-10H-phenothiazine], the inhibition constant Ki in assay [1] is 25.8 ± 5.8 nM; in assay [2], more than 400 nM; in assay [3], 7.7 ± 1.7 nM; in assay [4] it was 144 ± 49.5 nM.
In the case of `CNc1ccc(-c2nc3ccc(O)cc3s2)cc1F` [Flutemetamol], the Ki in assay [6] was 0.74 ± 0.38 nM.
With `CN(C)c1ccc(-c2cc(-c3ccnc(Br)c3)n[nH]2)cc1` [MODAG−001, reference compound], the dissociation constant (Kd) (usually the concentration at which binding is half-saturated) in assay [5] is 0.6 ± 0.1 nM. In addition, the Ki in assay [2] (read-out: αSYN—Ki [^3H]SIL26, competition vs [^3H]SIL26 (7 nM), αSYN fibrils 35 nM, mean ± SEM) stood at 10.8 nM.
Turning to `COc1ccc2c(c1)Sc1cc(-c3cc(-c4cccc(F)c4)n[nH]3)ccc1N2` [DAP1c, 3-(3-(3-Fluorophenyl)-1H-pyrazol-5-yl)-7-methoxy-10H-phenothiazine], the Ki was 1 nM in assay [1], more than 400 nM in assay [2], 15.9 ± 2.4 nM in assay [3] and more than 400 nM in assay [4].
`CNc1ccc(/C=C/c2ccc(OCCOCCOCCF)nc2)cc1` [Florbetapir]: the Kd in assay [6] was 3.72 ± 0.3 nM.
`COc1cccc(Sc2cc(-c3cc(-c4ccccc4)n[nH]3)ccc2N)c1` [DAP3a, 2-((3-Methoxyphenyl)thio)-4-(3-phenyl-1H-pyrazol-5-yl)aniline]: the Ki in assay [1] is 86.1 nM; in assay [3] it was more than 400 nM. Moreover, the “αSYN—Ki [^3H]SIL26” value in assay [2] (setting [7]) is on record as “no competition ^a”. Moreover, the “αSYN—Ki [^3H]MODAG−001” value in assay [4] is “no competition”.
For the compound `CNc1ccc(/C=C/c2ccc(OCCOCCOCCF)cc2)cc1` [Florbetaben], the Ki in assay [6] was 6.7 ± 0.3 nM.
